Among the test systems are SF-268 CNS; SNB-19 CNS; UO-31 renal; RPMI-8226 leukemia; CCRF-CEM leukemia; HT29 colon; IGROV1 ovarian; NCI-H23 lung; NCI-H460 lung; SF-539 CNS.
Common to all, as to assay: NCI tumour cell line growth inhibition, 48 h

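How tested: cells in 96-well plates exposed to compound for 48 hours at five concentrations. GI50 = concentration required for 50% inhibition of growth. At the TGI there is no net growth.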

We go through 9 molecules from PubChem BioAssay (NCI).

Turning to `Oc1ccc(/C=N/NC(=S)Nc2ccccc2)nc1`, the GI50 was 0.969 µM in the experiment with SF-268 CNS; 1.93 µM in the experiment on SNB-19 CNS; 0.661 µM in the experiment with UO-31 renal; 3.44 µM in the experiment with RPMI-8226 leukemia; 0.938 µM with CCRF-CEM leukemia; 5.83 µM in the experiment with HT29 colon. Moreover, the GI50 was 3.68 µM in the experiment on IGROV1 ovarian, 3.34 µM with NCI-H23 lung, 2.77 µM in the experiment on NCI-H460 lung and 0.851 µM in the experiment with SF-539 CNS. Also, the TGI was above 100 µM in the experiment with SF-268 CNS; above 100 µM in the experiment with SNB-19 CNS; 16.8 µM with UO-31 renal; above 100 µM in the experiment with RPMI-8226 leukemia; above 100 µM in the experiment on CCRF-CEM leukemia; above 100 µM in the experiment with HT29 colon. Further, the TGI in the experiment with IGROV1 ovarian is above 100 µM; with NCI-H23 lung, above 100 µM; in the experiment on NCI-H460 lung it was above 100 µM; in the experiment with SF-539 CNS, 6.19 µM.
Consider `O=C(CC(=O)N1N=C(n2ccc3ccccc32)CC1c1ccccc1)Nc1ccccc1Cl` (centres undefined), for which the TGI in the experiment on SF-268 CNS, with SNB-19 CNS, in the experiment on UO-31 renal, in the experiment on RPMI-8226 leukemia, in the experiment on CCRF-CEM leukemia and in the experiment with HT29 colon was above 100 µM throughout. The TGI in the experiment with IGROV1 ovarian, in the experiment on NCI-H23 lung, with NCI-H460 lung and with SF-539 CNS was above 100 µM in each case.
`CCCCCCCCCCCCCCCC(=O)OCC1OC(OCCCC)[C@H](O[C@@H]2OC(C)C(OC(=O)CCC)C(O)C2O)C(O)C1O` (some centres undefined): the GI50 is 18.4 µM in the experiment with SF-268 CNS; 15.4 µM with SNB-19 CNS; 28.3 µM in the experiment with UO-31 renal; 16.8 µM in the experiment on RPMI-8226 leukemia; 17.2 µM in the experiment on CCRF-CEM leukemia; 18.6 µM with HT29 colon. In addition, the GI50 is 23.1 µM in the experiment with IGROV1 ovarian, 16.2 µM with NCI-H23 lung, 22.4 µM in the experiment on NCI-H460 lung and 21 µM in the experiment on SF-539 CNS. Also, the TGI is 42.4 µM in the experiment with SF-268 CNS; 32.8 µM with SNB-19 CNS; above 100 µM in the experiment with UO-31 renal; 33.4 µM in the experiment on RPMI-8226 leukemia; 35 µM with CCRF-CEM leukemia; 38.7 µM with HT29 colon. Further, the TGI with IGROV1 ovarian was above 100 µM; in the experiment on NCI-H23 lung, 30.2 µM; in the experiment with NCI-H460 lung it was 57.8 µM; in the experiment on SF-539 CNS, 36.8 µM.
On to `Cc1c(C(=O)/C=C/c2ccc([N+](=O)[O-])cc2)[n+](=O)c2ccccc2n1[O-]`, for which the TGI in the experiment with SF-268 CNS was above 100 µM; in the experiment on SNB-19 CNS it was above 100 µM; with UO-31 renal, above 100 µM; in the experiment with RPMI-8226 leukemia, above 100 µM; in the experiment on CCRF-CEM leukemia, 99.2 µM; in the experiment on HT29 colon it was above 100 µM. In addition, the TGI in the experiment on IGROV1 ovarian is above 100 µM; in the experiment with NCI-H23 lung, 86.7 µM; in the experiment with NCI-H460 lung it was above 100 µM; in the experiment with SF-539 CNS, above 100 µM.
On to `CCN1C[C@@H](C)n2c(c(O)c3c(=O)n(Cc4ccc(F)c(Cl)c4)nc(C(=O)NC)c32)C1=O`, for which the GI50 was 3.4 µM with SF-268 CNS; 3.37 µM in the experiment with SNB-19 CNS; 2.43 µM in the experiment with UO-31 renal; 2.59 µM in the experiment with RPMI-8226 leukemia; 3.57 µM in the experiment on CCRF-CEM leukemia; 3.9 µM in the experiment with HT29 colon. The GI50 is 3.74 µM in the experiment with IGROV1 ovarian, 2.7 µM in the experiment with NCI-H23 lung, 3.15 µM in the experiment on NCI-H460 lung and 2.32 µM with SF-539 CNS. Also, the TGI in the experiment with SF-268 CNS was 39.8 µM; in the experiment on SNB-19 CNS, above 100 µM; with UO-31 renal, above 100 µM; in the experiment with RPMI-8226 leukemia, 7.37 µM; in the experiment with CCRF-CEM leukemia, above 100 µM; in the experiment on HT29 colon, 15.5 µM. In addition, the TGI with IGROV1 ovarian was above 100 µM; in the experiment with NCI-H23 lung, 8.62 µM; in the experiment on NCI-H460 lung, 10.7 µM; in the experiment on SF-539 CNS, 5.37 µM.
With `CC(=O)[CH-]C(=O)c1ccccc1.CC(=O)[CH-]C(=O)c1ccccc1.CC[C@H](CCC(C)[C@H]1CCC2[C@@H]3CC=C4C[C@@H]([O-])CC[C@]4(C)C3CC[C@@]21C)C(C)C.CC[C@H](CCC(C)[C@H]1CCC2[C@@H]3CC=C4C[C@@H]([O-])CC[C@]4(C)C3CC[C@@]21C)C(C)C.Cl.[Ti+4]` (some centres undefined), the TGI with SF-268 CNS, with SNB-19 CNS, in the experiment with UO-31 renal, with RPMI-8226 leukemia, with CCRF-CEM leukemia and with HT29 colon was above 25 µM each time. Further, the TGI in the experiment with IGROV1 ovarian, in the experiment with NCI-H23 lung, in the experiment with NCI-H460 lung and in the experiment on SF-539 CNS was above 25 µM each time.
Take `CC[C@]1(O)CC2CN(CCc3c([nH]c4ccccc34)C(C(=O)OC)(c3cc4c(cc3OC)N(C=O)[C@H]3[C@@](O)(C(=O)OC)[C@H](OC(C)=O)[C@]5(CC)[C@@H]6C[C@@H]6CN6CC[C@]43[C@@H]65)C2)C1` (some centres undefined): the GI50 is below 0.00325 µM in the experiment with SF-268 CNS; below 0.00325 µM in the experiment with SNB-19 CNS; 0.173 µM in the experiment on UO-31 renal; below 0.00325 µM in the experiment with RPMI-8226 leukemia; below 0.00325 µM in the experiment on CCRF-CEM leukemia; below 0.00325 µM in the experiment with HT29 colon. In addition, the GI50 in the experiment with IGROV1 ovarian, in the experiment on NCI-H23 lung, with NCI-H460 lung and in the experiment on SF-539 CNS was below 0.00325 µM each time. Moreover, the TGI in the experiment with SF-268 CNS was 7.39 µM; in the experiment on SNB-19 CNS, above 32.5 µM; in the experiment with UO-31 renal it was above 19.4 µM; in the experiment on RPMI-8226 leukemia, 0.0579 µM; in the experiment with CCRF-CEM leukemia it was 0.155 µM; with HT29 colon, 0.033 µM. Also, the TGI was above 18 µM in the experiment with IGROV1 ovarian, above 11.2 µM with NCI-H460 lung and below 0.00325 µM with SF-539 CNS.
For `COC1(OC)CCC2(C)OC(c3ccccc3)C1O2` (centres undefined), the TGI in the experiment on SF-268 CNS, in the experiment on SNB-19 CNS, with UO-31 renal, in the experiment with RPMI-8226 leukemia, with CCRF-CEM leukemia and in the experiment with HT29 colon was above 100 µM throughout. Besides, the TGI with IGROV1 ovarian, with NCI-H23 lung, in the experiment with NCI-H460 lung and in the experiment on SF-539 CNS was above 100 µM each time.
As for `O=C(NNC1=NS(=O)(=O)c2ccccc2N1c1ccccc1)c1cnccn1`, the GI50 with SF-268 CNS is above 100 µM; in the experiment on SNB-19 CNS, above 100 µM; in the experiment on UO-31 renal, 67.4 µM; with RPMI-8226 leukemia it was above 100 µM; in the experiment on CCRF-CEM leukemia it was above 100 µM; in the experiment with HT29 colon, above 100 µM. Also, the GI50 with IGROV1 ovarian, in the experiment with NCI-H23 lung, in the experiment on NCI-H460 lung and in the experiment with SF-539 CNS was above 100 µM in each case. In addition, the TGI with SF-268 CNS, in the experiment with SNB-19 CNS, in the experiment on UO-31 renal, in the experiment on RPMI-8226 leukemia, in the experiment with CCRF-CEM leukemia and with HT29 colon was above 100 µM throughout. Besides, the TGI in the experiment with IGROV1 ovarian, in the experiment on NCI-H23 lung, with NCI-H460 lung and in the experiment on SF-539 CNS was above 100 µM in each case.
